Laboratory results published in patent US12274774B2, “Cosmetic composition derived from natural products for improving skin health” (SEOUL NATIONAL UNIVERSITY R&DB FOUNDATION, priority 2021, dated 2025).

Columns and labels:
[1] = test system: Human-derived normal fibroblasts; assay: Wrinkle improvement efficacy (collagen synthesis); format: cell-based; conditions: 10 μM to 20 μM, UV-irradiated fibroblasts, FIG. 6
Method: • 1) Human-derived normal fibroblasts were inoculated at 2×10^5/6 well and cultured. • 2) Culture was performed for 1 day under starvation conditions. • 3) The cells were treated with samples at different concentrations, respectively, and cultured for 24 hours. • 4) The cells were washed and then irradiated with UV, followed by culture for 48 hours. • 5) The amount of collagen expression in the cell culture medium was measured and analyzed.

[2] = Measurement of absorbance (spectrophotometer); format: physicochemical; conditions: 10 μM to 50 μM in organic solvent; UV-A (320 nm to 400 nm), UV-B (280 nm to 320 nm), UV-C (200 nm to 280 nm), FIG. 8
Method: • 1) Resveratrone was dissolved in an organic solvent at a concentration of 10 μM to 50 μM. • 2) The absorbance of resveratrone was measured by using a spectrophotometer.

[3] = biological target: T1, tyrosinase (melanin synthase) (Homo sapiens, UniProt P14679); assay: Whitening efficacy: inhibition of tyrosinase activity in pigment cells; format: cell-based; conditions: 1 μM to 50 μM, human-derived normal pigment cells, 72 hours, FIG. 5
T1 construct: The cells were lysed, the supernatant was separated; endogenous in cells; host or cells: human-derived normal pigment cells
T1 sequence (P14679 19-529): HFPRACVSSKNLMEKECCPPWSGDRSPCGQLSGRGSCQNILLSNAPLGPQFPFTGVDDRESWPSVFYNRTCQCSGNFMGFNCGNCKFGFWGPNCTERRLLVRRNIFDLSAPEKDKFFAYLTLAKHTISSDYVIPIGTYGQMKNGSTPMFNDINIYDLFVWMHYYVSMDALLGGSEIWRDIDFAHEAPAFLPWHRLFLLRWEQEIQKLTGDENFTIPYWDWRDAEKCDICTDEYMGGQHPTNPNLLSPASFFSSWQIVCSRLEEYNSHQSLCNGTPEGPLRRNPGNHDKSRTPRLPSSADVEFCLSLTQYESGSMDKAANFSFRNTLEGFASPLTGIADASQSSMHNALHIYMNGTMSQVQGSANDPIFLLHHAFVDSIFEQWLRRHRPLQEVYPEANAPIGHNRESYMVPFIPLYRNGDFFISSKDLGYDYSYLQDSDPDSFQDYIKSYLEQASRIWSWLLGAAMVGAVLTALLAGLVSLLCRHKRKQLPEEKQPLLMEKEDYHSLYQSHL
Method: • 1) Human-derived normal pigment cells were inoculated in an appropriate number and cultured for 1 day. • 2) The culture medium was replaced with culture media treated with respective samples and cultured for 72 hours. • 3) The cells were lysed, the supernatant was separated, and the absorbance value of the supernatant was measured at 475 nm at 30 minute intervals while the supernatant was allowed to react with dopa, a reactant, at 37° C. • 4) The amount of protein in the cell lysis supernatant was measured by the BCA method to correct a tyrosinase (melanin synthase) measurement value.

Propionibacterium acnes = assay: Anti-acne efficacy (antibacterial efficacy); format: cell-based; conditions: 20 μM to 200 μM, 72 hours anaerobic culture, FIG. 7
Method: • 1) Propionibacterium acnes, anaerobic acne bacteria, were cultured under anaerobic culture conditions. • 2) The strain was prepared by adjusting the turbidity to McFarland standard NO. 1, followed by dilution of 1/20 in a liquid culture medium. • 3) Liquid nutrient media were treated with samples at different concentrations, respectively. • 4) After 100 μL of each of the liquid nutrient media treated with the samples was dispensed, 10 μL of the prepared strain was inoculated to each medium. • 5) After the strain was cultured for 72 hours under anaerobic culture conditions, the number of bacteria was measured and analyzed.

[4] = test system: Human-derived normal fibroblasts; assay: Cell proliferation efficacy (MTT method); format: cell-based; conditions: 10 μM, 72 hours culture, FIG. 1
Method: • 1) Human-derived normal fibroblasts were cultured. • 2) The cells were inoculated in an appropriate number, and after 24 hours, starvation was performed for 24 hours. • 3) The cells were cultured for 72 hours in media treated with samples at different concentrations, respectively. • 4) Cell activity was measured and analyzed by the MTT method.

B16F10 cells [5] = assay: Whitening efficacy: inhibition of B16F10 intracellular melanin synthesis; format: cell-based; conditions: 10 μM to 50 μM, α-MSH treated B16F10 cells, 72 hours, FIG. 3
Method: • 1) B16F10 cells were cultured. • 2) The cells were inoculated in an appropriate number, and after 24 hours, all groups except blank were treated with α-MSH and samples, respectively. • 3) The cells were cultured for 72 hours in culture media treated with respective samples. • 4) The cells were lysed, the supernatant was separated, and the absorbance value of the supernatant was measured. • 5) The amount of protein in each supernatant was measured and analyzed by the BCA method. • 6) The melanin synthesis value measured in the supernatant was corrected into the amount of protein to calculate the amount of melanin synthesis per unit cell.

B16F10 cells [6] = assay: Whitening efficacy: inhibition of B16F10 extracellular melanin synthesis; format: cell-based; conditions: 10 μM to 50 μM, α-MSH treated B16F10 cells, 72 hours, culture media, FIG. 4
Method: • 1) B16F10 cells were cultured. • 2) The cells were inoculated in an appropriate number, and after 24 hours, all groups except blank were treated with α-MSH and samples, respectively. • 3) The cells were cultured for 72 hours in culture media treated with respective samples. • 4) The absorbance values of the cell culture media were measured. • 5) The cells were lysed, the supernatant was separated, and the amount of protein was measured by the BCA method to correct the amount of melanin synthesis. • 6) The measured melanin synthesis value was corrected into the amount of protein to calculate the amount of melanin synthesis per unit cell.

[7] = Antioxidant efficacy (DPPH assay); format: biochemical; conditions: 1 μM to 50 μM, absorbance at 517 nm, FIG. 2
Method: • 1) 115 μL of 70% ethanol was dispensed to each of 96 wells. • 2) 5 μL of each sample and positive control was dispensed, and the absorbance was measured at 517 nm to measure the absorbance before the reaction. • 3) 80 μL of a DPPH solution was dispensed. • 4) After the reaction, the absorbance was measured at 517 nm, and the result was analyzed by using the absorbance values before and after the reaction.

## CC(=O)/C=C/c1ccc2cc(O)cc(O)c2c1 [resveratrone, Resveratrone]
[1]
  increase in collagen synthesis: increase in collagen synthesis was confirmed
[2]
  UV absorption: absorption was confirmed in all UV regions
[3]
  inhibition of tyrosinase activity: inhibition of tyrosinase activity was confirmed
Propionibacterium acnes
  inhibition of bacterial growth: inhibition of bacterial growth was confirmed
[4]
  increase in number of cells: 20%
B16F10 cells [5]
  inhibition of intracellular melanin synthesis: inhibition of melanin synthesis was confirmed
B16F10 cells [6]
  inhibition of extracellular melanin synthesis: inhibition of melanin synthesis was confirmed
[7]
  radical scavenging ability: radical scavenging ability was confirmed
